This note sets out measurements from patent publication US9549965B2, “Pharmaceutical composition for treating a microbial infection” (HELPERBY THERAPEUTICS LIMITED, priority 2010, dated 2017).

Values after ≈ are worked out from the molar mass of the structure shown. Where a name gives a salt, the structure may show the parent alone.

One test relates to stationary phase E. coli. Put plainly: Bactericidal activity against stationary phase E. coli (CFU counts). The class given is cell-based, Escherichia coli. To be noted: Escherichia coli, read-out: Log kill; for log reduction at 6.25 µg/mL: 6.25 μg/ml; for log reduction at 12.5 µg/mL: 12.50 μg/ml; for log reduction at 25 µg/mL: 25.00 μg/ml. The protocol: (§1) Escherichia coli K12; Gram negative; Reference strain.
(§2) Bacteria were grown in 10 ml of nutrient broth (No. 2 (Oxoid)) overnight at 37° C., with continuous shaking at 120 rpm. The overnight cultures were diluted (1000×) in 100 ml of growth medium and then incubated without shaking for 10 days. Viability of the bacteria was estimated by colony forming unit (CFU) counts at 2 hour intervals at the first 24 hours and at 12-24 hours afterwards. From serial 10-fold dilutions of the experimental cultures, 100 μl samples were added to triplicate plates of nutrient agar plates (Oxoid) and blood agar plates (Oxoid). Colony forming units (CFU) were counted after incubation of the plates at 37° C. for 24 hours.
(§3) Cultures incubated for more than 24 hours are in the stationary phase. For drug screening, 5-6 day old stationary phase cultures were used.
(§4) Different concentrations of each test compound were incubated with stationary phase cultures (5-6 day cultures) in 96 well plates for 24 or 48 hours. Bactericidal activity was then determined by taking CFU counts of the resulting cultures, as described above.

In test [1] the test system is NDM-1 Klebsiella pneumoniae. Put plainly: Chequerboard analysis with colistin against NDM-1 Klebsiella pneumoniae. The class given is cell-based.
Test [2] deals with stationary phase S. aureus. Put plainly: Bactericidal activity against stationary phase S. aureus (CFU counts). The class given is cell-based, Staphylococcus aureus. To be noted: Staphylococcus aureus, read-out: Log Kill; for log reduction at 6.25 µg/mL: 6.25 μg/ml; for log reduction at 12.5 µg/mL: 12.5 μg/ml; for log reduction at 25 µg/mL: 25 μg/ml. The protocol: Staphylococcus aureus (Oxford strain); Gram positive; Reference strain.
as §2, §3, §4

The test system of a further test is persistent E. coli. In words: Bactericidal activity against persistent E. coli selected by gentamicin. The class given is cell-based, Escherichia coli. To be noted: Escherichia coli, read-out: Log Kill; for log reduction at 6.25 µg/mL: 6.25 μg/ml; for log reduction at 12.5 µg/mL: 12.5 μg/ml; for log reduction at 25 µg/mL: 25 μg/ml. The protocol: as §1
An antibiotic (gentamicin) was added to 5-6 day stationary-phase cultures to the final concentration of 50 to 100 μg/ml for 24 hours. After 24 hours of antibiotic treatment, the cells are washed 3 times with phosphate buffered saline (PBS), and then resuspended in PBS. The surviving bacterial cells are used as persisters. Viability is estimated by CFU counts. The persisters were then used in measurements of bactericidal activity for test compounds.
Different concentrations of each test compound were incubated with the (persister) cell suspension in 96 well plates for various periods of time (24 and 48 hours). Bactericidal activity was then determined by taking CFU counts of the resulting cultures, as described above.

The subject of the next test is log phase E. coli. In words: MIC against log phase E. coli. The class given is cell-based, Escherichia coli. The note with it: Escherichia coli, read-out: MIC. The protocol: as §1
The above-described overnight cultures were diluted (1000×) with iso-sensitest broth. The cultures were then incubated at 37° C. with shaking for 1-2 hours to reach log CFU 6, which served as log phase cultures.
The bactericidal activity of the drugs against log phase cultures were determined by minimal inhibitory concentration (MIC) of the drugs, which is defined as the lowest concentration which inhibits visible growth. Different concentrations of each test compound were incubated with the log-phase cultures in 96 well plates for 24 hours. Bactericidal activity was then examined by taking a spectrophotometer reading (using a plate reader) at 405 nm.

For test [3], the system named is stationary phase P. aeruginosa. In words: Bactericidal activity against stationary phase P. aeruginosa. The class given is cell-based, Pseudomonas aeruginosa. To be noted: for activity against stationary phase P. aeruginosa: FIG. 1. The protocol: as §2, with “Pseudomonas aeruginosa NCTC 6751; Gram negative; Reference strain. Bacteria” for “Bacteria”, “hours. Cultures incubated for more than 24 hours are in the stationary phase. For drug screening, 5-6 day old stationary phase cultures were used. Different concentrations of each test compound were incubated with stationary phase cultures (5-6 day cultures) in 96 well plates for 24 or 48 hours. Bactericidal activity was then determined by taking CFU counts of the resulting cultures, as described above.” for “hours.”

In test [4] the test system is clinically latent microorganisms. Put plainly: Screening for ability to kill clinically latent microorganisms (method of WO2000028074). The class given is cell-based. The text has this: International Patent Application, Publication Number WO2000028074 describes a method of screening compounds to determine their ability to kill clinically latent microorganisms. […] This observation has necessitated the development of novel antimicrobials which may be used to kill clinically latent microorganisms.
By way of example, WO2000028074 describes a suitable method of screening compounds to determine their ability to kill clinically latent microorganisms. A typical method may include the following steps: • (1) growing a bacterial culture to stationary phase; • (2) treating the stationary phase culture with one or more antimicrobial agents at a concentration and or time sufficient to kill growing bacteria, thereby selecting a phenotypically resistant sub-population; • (3) incubating a sample of the phenotypically resistant subpopulation with one or more test compounds or agents; and • (4) assessing any antimicrobial effects against the phenotypically resistant subpopulation.

Consider `OC(c1cc(C(F)(F)F)nc2c(C(F)(F)F)cccc12)C1CCCCN1` (stereo not shown) [Mefloquine], for which the results for the log reduction at 6.25 µg/mL (in the test with stationary phase E. coli; in test [2]; with persistent E. coli) were 2.48, -0.01 and 0.02, respectively. Further, the log reduction at 12.5 µg/mL with stationary phase E. coli stood at 6.14; in test [2] it was 6.03; in the test on persistent E. coli, 0.03. Also, the log reduction at 25 µg/mL is 6.14 with stationary phase E. coli, 6.03 in test [2] and 6.21 in the test with persistent E. coli. The spectrophotometer reading in test [1] (mefloquine 0.25 mg/L alone) stood at 1.10; in test [1] (mefloquine 0.5 mg/L alone) it was 1.08; in test [1] (mefloquine 1 mg/L alone), 1.10; in test [1] (mefloquine 2 mg/L alone) it was 1.09; in test [1] (mefloquine 4 mg/L alone), 1.09; in test [1] (mefloquine 8 mg/L alone) it was 1.15. Besides, the spectrophotometer reading is 1.10 in test [1] (mefloquine 16 mg/L alone); 0.82 in test [1] (mefloquine 32 mg/L alone); 0.60 in test [1] (mefloquine 64 mg/L alone); 0.33 in test [1] (mefloquine 128 mg/L alone); 0.34 in test [1] (mefloquine 256 mg/L alone). The minimal inhibitory concentration (MIC) with log phase E. coli was determined as 10 µg/mL (≈ 26.4 µM). Also, in test [3] (40 μg/ml), the “log reduction of the bacterium” value is recorded as “about 1.5 log”. Also, in test [3] (80 μg/ml), the organism removed entry is “more than 10^7”. The “activity against stationary phase P. aeruginosa” value in test [3] is listed as “active”.

Take `CCCCCCCCNC(C)C(O)c1ccc(SC(C)C)cc1` (stereo not shown) [Suloctidil]: the spectrophotometer reading in test [1] (suloctidil 0.25 mg/L alone) amounted to 0.97; in test [1] (suloctidil 0.5 mg/L alone), 1.03; in test [1] (suloctidil 1 mg/L alone) it was 0.98; in test [1] (suloctidil 2 mg/L alone), 0.93; in test [1] (suloctidil 4 mg/L alone), 0.94; in test [1] (suloctidil 8 mg/L alone), 0.70. The spectrophotometer reading is 0.60 in test [1] (suloctidil 16 mg/L alone); 0.60 in test [1] (suloctidil 32 mg/L alone); 0.38 in test [1] (suloctidil 64 mg/L alone); 0.44 in test [1] (suloctidil 128 mg/L alone); 0.61 in test [1] (suloctidil 256 mg/L alone). In addition, the log reduction at 6.25 µg/mL in test [2] turned out to be 6.03; in the test with persistent E. coli it was 0.02. The log reduction at 12.5 µg/mL was determined as 6.03 in test [2] and 0.02 with persistent E. coli. In addition, the log reduction at 25 µg/mL in test [2] worked out at 6.03; in the test on persistent E. coli, 6.21. The MIC with log phase E. coli stood at 10 µg/mL (≈ 29.6 µM). Also, in test [3], the “activity against stationary phase P. aeruginosa” value is “no observable activity”.

Take `CN(C)CCCN1c2ccccc2Sc2ccc(C(F)(F)F)cc21` [Triflupromazine hydrochloride]: the log reduction at 6.25 µg/mL with stationary phase E. coli stood at 2.1; in test [2], 6.15; in the test on persistent E. coli it was 0.03. In addition, the log reduction at 12.5 µg/mL in the test with stationary phase E. coli is 6.14; in test [2], 6.15; in the test on persistent E. coli it was 2.34. The log reduction at 25 µg/mL with stationary phase E. coli turned out to be 6.14; in test [2] it was 6.15; in the test on persistent E. coli, 6.21. The spectrophotometer reading in test [1] (triflupromazine 0.25 mg/L alone) was 1.11; in test [1] (triflupromazine 0.5 mg/L alone), 1.13; in test [1] (triflupromazine 1 mg/L alone), 1.14; in test [1] (triflupromazine 2 mg/L alone) it was 1.13; in test [1] (triflupromazine 4 mg/L alone), 1.14; in test [1] (triflupromazine 8 mg/L alone), 1.17. Further, the spectrophotometer reading was determined as 1.11 in test [1] (triflupromazine 16 mg/L alone); 1.08 in test [1] (triflupromazine 32 mg/L alone); 0.73 in test [1] (triflupromazine 64 mg/L alone); 0.76 in test [1] (triflupromazine 128 mg/L alone); 0.41 in test [1] (triflupromazine 256 mg/L alone). Moreover, the minimum inhibitory concentration (MIC) in the test with log phase E. coli came to 10 µg/mL.

In the case of `CC[C@H]1OC(=O)[C@H](C)[C@@H](O[C@H]2C[C@@](C)(OC)[C@@H](O)[C@H](C)O2)[C@H](C)[C@@H](O[C@@H]2O[C@H](C)C[C@H](N(C)C)[C@H]2O)[C@](C)(O)C[C@@H](C)CN(C)[C@H](C)[C@@H](O)[C@]1(C)O` [azithromycin], in test [4], the “activity against clinically latent microorganisms” value is reported as “little or no activity”.

In the case of `CC(=O)NC[C@H]1CN(c2ccc(N3CCOCC3)c(F)c2)C(=O)O1` [linezolid], the “activity against clinically latent microorganisms” value in test [4] was “little or no activity”.

Turning to `C/C(=C\C(=O)OCCCCCCCCC(=O)O)C[C@@H]1OC[C@H](C[C@@H]2O[C@H]2[C@@H](C)[C@H](C)O)[C@@H](O)[C@H]1O` [mupirocin], the “activity against clinically latent microorganisms” value in test [4] is given as “little or no activity”.

As usually defined, the MIC is the lowest concentration found to suppress growth.
